For the test, the target named is MAPK14;MAPK11;MAPK12 (human) (UniProt Q16539). The test can be described thus: Inhibition of p38 Kinase Activity.

Regarding `Cc1ccc(C(N)=O)cc1Nc1nc(N[C@H]2CCN(C(C)(C)C)C2)nc(N(C)CC(C)(C)C)n1`, the IC50 is below 1 µM. On to `CNc1nc(Nc2ccc3ncsc3c2)nc(N[C@H](C)C2CCCCC2)n1`, for which the IC50 is below 10 µM. For the molecule `Cc1ccc(C(N)=O)cc1Nc1nc(N[C@@H]2CCNC2)nc(-c2cccc(Cl)c2)n1`, the 50% inhibitory concentration (IC50) is below 1 µM.

`CNc1nc(NCc2ccc(F)cc2F)nc(Nc2ccc3ncsc3c2)n1` registered an IC50 below 10 µM. `CC(CNc1nc(Nc2ccc3ncsc3c2)nc(N2CCN(C(=S)NC3CCCCC3)CC2)n1)c1ccccc1` (stereo not drawn) registered a concentration for half-maximal inhibition (IC50) below 10 µM. Consider `Cc1ccc(C(N)=O)cc1Sc1nc(N[C@@H]2CCNC2)nc(N(C)CC(C)(C)C)n1`, for which the IC50 is below 30 µM.

For the molecule `CNc1nc(NCC(C)c2ccccc2)nc(Nc2ccc3ncsc3c2)n1` (stereo not drawn), the IC50 was below 10 µM. For the molecule `CNC(=O)c1ccc(C)c(Nc2nc(N[C@H]3CCNC3)nc(N(C)CC3CCCC3)n2)c1`, the IC50 is below 1 µM. `CNC(=O)c1ccc(C)c(Nc2nc(N[C@H]3CCNC3)nc(N(C)CC(C)(C)C)n2)c1`: the IC50 is below 1 µM. The molecule `Cc1ccc(C(N)=O)cc1Nc1nc(NC2Cc3ccccc3C2)nc(N[C@@H]2CCNC2)n1` returned a concentration for half-maximal inhibition (IC50) below 1 µM. For the molecule `CC(CCCCCCN(C)c1nc(NCC(C)c2ccccc2)nc(Nc2ccc3ncsc3c2)n1)C(N)=O` (stereo not drawn), the IC50 was below 10 µM.

In the case of `CC1(C)C2CCC(CNc3nc(Nc4ccc5ncoc5c4)nc(N4CCN(C(=O)CCC(=O)O)CC4)n3)C1C2` (stereo not drawn), the IC50 is below 10 µM. The molecule `Cc1ccc(C(N)=O)cc1Nc1nc(NC2CCCN(C(C)C)C2)nc(N(C)CC(C)C)n1` (stereo not drawn) registered a half-inhibitory concentration (IC50) below 1 µM.

In the case of `NC(=O)CNc1nc(Nc2ccc3ncsc3c2)nc(NC2CCc3ccccc32)n1` (stereo not drawn), the IC50 is below 10 µM. In turn, `C=CCN1CC[C@H](Nc2nc(Nc3cc(C(=O)NC(C)C)ccc3C)nc(N(C)CC3CCCC3)n2)C1` registered an IC50 below 1 µM. In turn, `CONC(=O)c1ccc(C)c(Nc2nc(N(C)CC(C)(C)C)nc(-n3ccnc3)n2)c1` showed an IC50 below 1 µM. `CNC(=O)c1ccc(C)c(Oc2nc(N[C@@H]3CCNC3)nc(N(C)CC(C)(C)C)n2)c1` showed a half-inhibitory concentration (IC50) below 30 µM. `Cc1ccc(C(N)=O)cc1Nc1cc(N(C)CC(C)C)nc(N[C@H]2CCNC2)n1`: the half-inhibitory concentration (IC50) is below 1 µM.

The molecule `CONC(=O)c1ccc(C)c(Nc2nc(NC(C)c3ccccn3)nc(N(C)CC(C)(C)C)n2)c1` (stereo not drawn) showed an IC50 below 1 µM.

In turn, `Cc1ccc(C(N)=O)cc1Nc1nc(NCCc2ccc3c(c2)OCO3)nc(N[C@H]2CCNC2)n1` came in with an IC50 below 1 µM.

With `NC(=O)C1CCN(c2nc(Nc3ccc4ncsc4c3)cc(NC3CCC3)n2)CC1`, the IC50 is below 10 µM. As for `Cc1ccc(C(=O)Nc2ccccc2)cc1Nc1nc(N[C@H]2CCNC2)nc(N(C)CC(C)(C)C)n1`, the IC50 was below 1 µM. In the case of `Cc1ccc(C(N)=O)cc1Nc1nc(NCC2CCNCC2)nc(NC2CCCC2)n1`, the IC50 was below 1 µM. As to `CONC(=O)c1ccc(C)c(Nc2nc(N)nc(N(C)CC(C)(C)C)n2)c1`, the IC50 was below 1 µM. In the case of `CC1(C)[C@@H]2CC[C@@H](CNc3nc(Nc4cc(C(N)=O)ccc4Cl)nc(NC4CCNC4)n3)[C@H]1C2` (stereo partly drawn), the IC50 was below 1 µM. Regarding `Cc1ccc(-c2nc3ccccc3[nH]2)cc1Nc1nc(N[C@@H]2CCNC2)nc(N(C)CC(C)(C)C)n1`, the IC50 is below 1 µM. Regarding `CC(=O)NCc1ccc(C)c(Nc2nc(N[C@H]3CCNC3)nc(N(C)CC(C)(C)C)n2)c1`, the IC50 is below 1 µM. For `CC1(C)[C@H]2CCC(CNc3nc(Cl)nc(Nc4ccc(S(=O)(=O)Nc5ncccn5)cc4)n3)[C@@H]1C2` (stereo partly drawn) the value was below 10 µM. In the case of `Cc1ccc(C(N)=O)cc1Nc1nc(NC2CCN(CCc3ccccc3)C2)nc(N(C)CC(C)C)n1` (stereo not drawn), the IC50 is below 1 µM. Next, `CNC(=O)CCC(=O)N1CCN(c2nc(NCC3CCC4CC3C4(C)C)nc(Nc3ccc4ncsc4c3)n2)CC1` (stereo not drawn): below 10 µM; `CCONC(=O)c1ccc(C)c(Nc2nc(N(C)CC(C)(C)C)nc(N3CCCNCC3)n2)c1`: below 1 µM; `CC(C)C(=O)N1CCN(c2nc(NCC(C)c3ccccc3)nc(Nc3ccc4ncsc4c3)n2)CC1` (stereo not drawn): below 10 µM. The molecule `CC(C)c1nc(Nc2ccc3ncsc3c2)nc(N2CCNCC2)n1` showed an IC50 below 10 µM.

Usually IC50 stands for the concentration needed to halve the response being measured. Read a low IC50 as higher potency.

The values are drawn from the Kinase Knowledgebase extract (Sharma et al. 2016).
